Test results: publication PMC5217690 (The Journal of Biological Chemistry, 2016)
Where a chain is given by its changes, count along the chain named. pKd: −log10 of the molar value.

Key:
TrmDEC [1] = target: T1, TrmDEC (Escherichia coli, UniProt P0A873, Y86L); test: ITC; format: binding
T1 construct: gene trmD; full-length, N-terminal His tag (pET28b), expressed in E. coli BL21(DE3), tag kept
T1 sequence (P0A873 2-255 Y86L): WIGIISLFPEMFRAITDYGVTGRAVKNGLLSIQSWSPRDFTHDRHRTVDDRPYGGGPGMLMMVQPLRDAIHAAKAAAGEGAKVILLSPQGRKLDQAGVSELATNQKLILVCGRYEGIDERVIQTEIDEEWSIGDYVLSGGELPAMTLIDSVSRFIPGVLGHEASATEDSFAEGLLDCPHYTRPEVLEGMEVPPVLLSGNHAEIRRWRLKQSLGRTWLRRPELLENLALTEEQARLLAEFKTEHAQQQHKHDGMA

TrmDEC [2] = target: T2, TrmDEC (Escherichia coli, UniProt P0A873, Y86F); test: ITC; format: binding
T2 construct: gene trmD; full-length, N-terminal His tag (pET28b), expressed in E. coli BL21(DE3), tag kept
T2 sequence (P0A873 2-255 Y86F): T1 sequence (P0A873 2-255 Y86L) with L85F

**Q.** `C[S+](CC[C@H](N)C(=O)O)C[C@H]1O[C@@H](n2cnc3c(N)ncnc32)[C@H](O)[C@@H]1O` (some centres unmarked) [AdoMet] was tested. Which pKd (TrmDEC [1]) did it give?
**A.** 4.16

**Q.** What about the pKd (TrmDEC [2]) of the same compound?
**A.** 4.55
